How the values were obtained:
Assay in all cases: relative viability (nuclei count vs DMSO), 5 days (fraction); higher = more cells survive
BX 795 + OSI-027 = compound: O=C(NCCCNc1nc(Nc2cccc(NC(=O)N3CCCC3)c2)ncc1I)c1cccs1 [BX 795] + COc1cccc2cc(-c3nc([C@H]4CC[C@H](C(=O)O)CC4)n4ncnc(N)c34)[nH]c12 [OSI-027] (partner 0.5 µM)
Method in brief: (§1)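 Each reported value is a median over duplicate plates. It expresses relative viability: treated-well nuclei count divided by vehicle-well nuclei count. Lung cancer cell lines in 1536-well plates were dosed by pin tool a day after seeding, alone with one drug or with a fixed anchor-drug dose plus five library-drug doses (not always all listed) in √10 steps, and nuclei were counted after 5 days.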

BX 795 + Crizotinib = compound: O=C(NCCCNc1nc(Nc2cccc(NC(=O)N3CCCC3)c2)ncc1I)c1cccs1 [BX 795] + C[C@@H](Oc1cc(-c2cnn(C3CCNCC3)c2)cnc1N)c1c(Cl)ccc(F)c1Cl [Crizotinib] (partner 1 µM)
Method in brief: as §1

BX 795 + Linsitinib = compound: O=C(NCCCNc1nc(Nc2cccc(NC(=O)N3CCCC3)c2)ncc1I)c1cccs1 [BX 795] + C[C@]1(O)C[C@@H](c2nc(-c3ccc4ccc(-c5ccccc5)nc4c3)c3c(N)nccn32)C1 [Linsitinib] (partner 1 µM)
Method in brief: as §1

BX 795 + Tozasertib = compound: O=C(NCCCNc1nc(Nc2cccc(NC(=O)N3CCCC3)c2)ncc1I)c1cccs1 [BX 795] + Cc1cc(Nc2cc(N3CCN(C)CC3)nc(Sc3ccc(NC(=O)C4CC4)cc3)n2)n[nH]1 [Tozasertib] (partner 0.1 µM)
Method in brief: as §1

BX 795 + Dasatinib = compound: O=C(NCCCNc1nc(Nc2cccc(NC(=O)N3CCCC3)c2)ncc1I)c1cccs1 [BX 795] + Cc1nc(Nc2ncc(C(=O)Nc3c(C)cccc3Cl)s2)cc(N2CCN(CCO)CC2)n1 [Dasatinib] (partner 0.075 µM)
Method in brief: as §1

Cell Line	relative viability (BX 795 + OSI-027; first compound 0.04 µM)	relative viability (BX 795 + OSI-027; first compound 0.1265 µM)	relative viability (BX 795 + OSI-027; first compound 0.4 µM)	relative viability (BX 795 + OSI-027; first compound 1.265 µM)	relative viability (BX 795 + Crizotinib; first compound 0.04 µM)	relative viability (BX 795 + Crizotinib; first compound 0.1265 µM)	relative viability (BX 795 + Crizotinib; first compound 0.4 µM)	relative viability (BX 795 + Crizotinib; first compound 1.265 µM)	relative viability (BX 795 + Linsitinib; first compound 0.04 µM)	relative viability (BX 795 + Linsitinib; first compound 0.1265 µM)	relative viability (BX 795 + Linsitinib; first compound 0.4 µM)	relative viability (BX 795 + Linsitinib; first compound 1.265 µM)	relative viability (BX 795 + Tozasertib; first compound 0.04 µM)	relative viability (BX 795 + Tozasertib; first compound 0.1265 µM)	relative viability (BX 795 + Tozasertib; first compound 0.4 µM)	relative viability (BX 795 + Tozasertib; first compound 1.265 µM)	relative viability (BX 795 + Dasatinib; first compound 0.04 µM)	relative viability (BX 795 + Dasatinib; first compound 0.1265 µM)	relative viability (BX 795 + Dasatinib; first compound 0.4 µM)	relative viability (BX 795 + Dasatinib; first compound 1.265 µM)
EKVX	0.657	0.649	0.63	0.603	1.04	0.867	0.732	0.753	1.1	1.21	0.833	0.839	0.38	0.471	0.358	0.331	0.637	0.295	0.539	0.508
NCI-H650	0.527	0.556	0.559	0.391	0.712	0.771	0.421	0.619	0.752	0.739	1.03	0.549	0.864	0.769	0.583	0.488	0.463	0.41	0.42	0.337
NCI-H3122	0.948	1.06	0.947	0.733	0.293	0.266	0.282	0.296	0.989	1.02	1.08	1.1	0.387	0.415	0.323	0.356	0.791	1	0.8	0.852
HARA	0.598	0.494	0.701	0.41	1.21	1.06	1	0.601	0.896	0.966	0.916	0.795	0.124	0.0907	0.0944	0.0873	0.241	0.268	0.26	0.276
ABC-1	0.577	0.512	0.459	0.33	1.2	1.23	1.03	0.3	0.849	0.914	0.765	0.549	0.193	0.151	0.145	0.148	0.522	0.618	0.557	0.546
LC-2-ad	0.841	0.767	0.867	0.658	0.558	0.316	0.325	0.402	0.83	0.715	0.637	0.351	0.611	0.475	0.419	0.384	0.416	0.497	0.391	0.285
NCI-H661	0.514	0.688	0.554	0.511	1.06	1.02	1.12	0.865	0.615	0.641	0.34	0.433	0.374	0.369	0.378	0.412	0.9	0.938	0.501	0.515
NCI-H647	0.723	0.826	0.581	0.584	1.08	1.17	0.955	0.242	1.25	1.16	1.28	0.601	0.256	0.352	0.218	0.233	0.19	0.196	0.151	0.0897
HCC-15	0.627	0.755	0.717	0.474	0.784	0.883	0.743	0.461	0.915	0.964	0.937	0.675	0.444	0.359	0.482	0.246	0.54	0.587	0.559	0.463
NCI-H1993	0.528	0.537	0.531	0.532	0.888	0.891	0.795	0.665	0.628	0.732	0.713	0.696	0.582	0.553	0.527	0.55	0.454	0.56	0.472	0.525
NCI-H727	0.761	0.635	0.537	0.557	0.868	0.986	0.634	0.492	0.294	0.247	0.277	0.24	0.683	0.706	0.512	0.546	0.376	0.318	0.386	0.58
NCI-H1944	0.51	0.459	0.488	0.381	1.18	1.03	1.09	0.741	1.25	1.36	1.14	1.1	0.286	0.236	0.302	0.243	0.241	0.219	0.201	0.194
NCI-H2023	0.272	0.398	0.173	0.182	0.592	0.626	0.269	0.282	0.572	0.71	0.445	0.314	0.316	0.295	0.215	0.139	0.5	0.54	0.306	0.302
NCI-H2126	0.837	0.677	0.818	0.699	1.04	0.984	1.09	0.945	0.714	0.656	0.757	0.701	0.85	0.883	0.831	0.758	0.649	0.658	0.507	0.599
NCI-H838	0.386	0.338	0.379	0.303	0.781	0.689	0.628	0.356	0.936	0.986	0.881	0.331	0.236	0.303	0.272	0.22	0.29	0.367	0.261	0.231
201T	0.946	0.675	0.775	0.824	1.06	1.03	1.1	1.03	1.06	1.08	1.04	1.03	1.06	0.918	1.11	0.963	0.627	0.617	0.629	0.635

Cell Line	relative viability (BX 795 + OSI-027; first compound 0.04 µM)	relative viability (BX 795 + OSI-027; first compound 0.1265 µM)	relative viability (BX 795 + OSI-027; first compound 0.4 µM)	relative viability (BX 795 + OSI-027; first compound 1.265 µM)	relative viability (BX 795 + Crizotinib; first compound 0.04 µM)	relative viability (BX 795 + Crizotinib; first compound 0.1265 µM)	relative viability (BX 795 + Crizotinib; first compound 0.4 µM)	relative viability (BX 795 + Crizotinib; first compound 1.265 µM)	relative viability (BX 795 + Linsitinib; first compound 0.04 µM)	relative viability (BX 795 + Linsitinib; first compound 0.1265 µM)	relative viability (BX 795 + Linsitinib; first compound 0.4 µM)	relative viability (BX 795 + Linsitinib; first compound 1.265 µM)	relative viability (BX 795 + Tozasertib; first compound 0.04 µM)	relative viability (BX 795 + Tozasertib; first compound 0.1265 µM)	relative viability (BX 795 + Tozasertib; first compound 0.4 µM)	relative viability (BX 795 + Tozasertib; first compound 1.265 µM)	relative viability (BX 795 + Dasatinib; first compound 0.04 µM)	relative viability (BX 795 + Dasatinib; first compound 0.1265 µM)	relative viability (BX 795 + Dasatinib; first compound 0.4 µM)	relative viability (BX 795 + Dasatinib; first compound 1.265 µM)
NCI-H1734	0.536	0.592	0.555	0.419	0.765	0.727	0.64	0.432	0.915	0.968	0.861	0.761	0.243	0.23	0.238	0.216	0.446	0.465	0.474	0.398
SK-MES-1	0.471	0.548	0.224	0.299	1.13	0.939	0.836	0.78	1.11	0.985	0.992	0.745	0.883	0.832	0.905	0.223	0.416	0.453	0.164	0.223
NCI-H1651	0.588	0.716	0.576	0.765	0.945	0.948	0.852	0.853	0.999	1.1	1.02	0.831	0.711	0.709	0.59	0.641	0.38	0.426	0.43	0.347
LCLC-97TM1	0.462	0.604	0.673	0.332	0.475	0.431	0.306	0.209	0.156	0.204	0.198	0.153	0.356	0.24	0.305	0.232	0.719	0.888	0.764	0.76
H3255	0.581	0.605	0.629	0.51	0.903	0.831	0.852	0.644	1.04	1.07	1.05	0.842	0.716	0.605	0.773	0.55	0.361	0.307	0.346	0.386
NCI-H322M	0.614	0.587	0.414	0.559	0.906	0.959	0.711	0.912	0.984	1.01	1.02	0.967	0.456	0.488	0.372	0.47	0.256	0.254	0.295	0.28
HCC-366	1.08	0.881	0.644	0.444	0.541	0.616	0.188	0.313	0.469	0.727	0.257	0.3	0.228	0.0924	0.0936	0.0708	0.757	0.73	0.498	0.631
NCI-H441	0.731	0.57	0.891	0.399	0.874	0.695	0.878	0.508	0.667	0.528	0.854	0.326	0.857	0.567	0.834	0.376	0.695	0.7	0.587	0.459
LK-2	0.248	0.194	0.186	0.2	0.238	0.171	0.21	0.193	0.518	0.396	0.484	0.393	0.164	0.185	0.16	0.175	0.35	0.201	0.291	0.304
LXF-289	0.793	0.898	0.959	0.681	0.86	0.82	0.778	0.47	0.969	0.949	1.03	0.678	0.209	0.155	0.154	0.142	0.209	0.28	0.185	0.15
HOP-62	0.833	0.917	0.84	0.768	1.04	0.953	1.13	0.941	0.915	1.02	1.2	0.525	0.381	0.441	0.361	0.275	0.659	0.797	0.668	0.576
NCI-H520	0.226	0.255	0.19	0.201	0.662	0.571	0.443	0.249	0.746	1.06	0.859	0.359	0.44	0.447	0.421	0.401	0.199	0.194	0.376	0.162
EMC-BAC-2	0.413	0.404	0.377	0.273	0.724	0.733	0.631	0.525	0.79	0.888	0.83	0.615	0.277	0.362	0.258	0.175	0.296	0.371	0.287	0.265
NCI-H2009	0.612	0.595	0.604	0.386	1.02	0.972	0.874	0.645	1.27	1.19	1.19	0.871	0.705	0.714	0.678	0.381	0.261	0.292	0.249	0.162
NCI-H2347	0.503	0.541	0.616	0.352	0.8	0.616	0.801	0.545	1.09	0.962	1.17	0.942	0.817	0.64	0.603	0.441	0.385	0.325	0.293	0.283
